In US4396615A, “Method of treating androgen-related disorders” (Duke University, priority 1981, dated 1983):
“And” between values parts separate entries of the source, which are not always exact repeats. Equal values may be shown once.

Legend:
5α-reductase [1] = conditions: preparations of human benign prostatic hypertrophic tissue; cited from earlier work
5α-reductase [2] = test: 5α-reductase assay of Moore and Wilson, with or without preincubation of enzyme with inhibitor and NADPH; assay type: biochemical; conditions: for Picomol Testosterone Reduced/mg protein in 45 min: assay 45 min: progesterone 5 × 10^-8, NADPH 5 × 10^-4, testosterone 5 × 10^-8; for manner of combination with / inactivation of the enzyme: in the presence of the co-factor NADPH; for potency as inhibitor of the enzyme relative to progesterone: assay of Moore and Wilson; for Picomol Testosterone reduced/mg protein in 45 min + SEM: assay 45 min: inhibitor 5 × 10^-8, testosterone 5 × 10^-8, NADPH 5 × 10^-4 M
From the text: Employing the assay of R. J. Moore and J. D. Wilson [Methods in Enzymology, Vol. XXXVI, Academic Press, N.Y., Ed. W. O'Malley and G. Hardman, p.

[3] = tested on: 5α-reductase in cell-culture preparations of human prostate; conditions: cited from earlier work
5α-reductase [4] = conditions: well-known, prior art; cited from earlier work
sebum secretion = conditions: topical administration of a 0.5% solution in aqueous ethanol; cited from earlier work

SMILES | conversion of testosterone to dihydrotestosterone (5α-reductase [1]) | Picomol Testosterone Reduced/mg protein in 45 min (5α-reductase [2]; 1: preincubation 15 min with progesterone 0 and NADPH 6 × 10^-5) | Picomol Testosterone Reduced/mg protein in 45 min (5α-reductase [2]; 2: preincubation 15 min with progesterone 5 × 10^-7 and NADPH 6 × 10^-5) | Picomol Testosterone Reduced/mg protein in 45 min (5α-reductase [2]; 4: no preincubation) | manner of combination with / inactivation of the enzyme (5α-reductase [2]) | enzyme inactivation on preincubation (5α-reductase [2]; preincubation of enzyme with compound and NADPH) | effect on growth of the tissue [3] | inhibition of the enzyme in cell-culture preparations of human prostate [3] | type of inhibition of the enzyme (5α-reductase [4]) | males with acne showing an important decrease in sebum secretion (sebum secretion) | potency as inhibitor of the enzyme relative to progesterone (5α-reductase [2]) | Picomol Testosterone reduced/mg protein in 45 min + SEM (5α-reductase [2]; A: preincubation 15 min with inhibitor 5 × 10^-7 M and NADPH 6 × 10^-5 M) | Picomol Testosterone reduced/mg protein in 45 min + SEM (5α-reductase [2]; B: preincubation 15 min with inhibitor 0 and NADPH 6 × 10^-5 M) | Picomol Testosterone reduced/mg protein in 45 min + SEM (5α-reductase [2]; C: preincubation 15 min with inhibitor 0 and NADPH 0) | Picomol Testosterone reduced/mg protein in 45 min + SEM (5α-reductase [2]; D: preincubation 15 min with inhibitor 5 × 10^-7 M and NADPH 0) | Picomol Testosterone reduced/mg protein in 45 min + SEM (5α-reductase [2]; F: no preincubation) | Ki (5α-reductase [2]; first phase, from plot of t1/2 against 1/[Inhibitor] (FIG. 2), read-out: Ki of reversible combination of enzyme and inhibitor) [nM] | time course of inactivation of the enzyme (5α-reductase [2]; incubation of enzyme with NADPH and inhibitor (FIG. 1)) | enzyme activity lost (5α-reductase [2]; preincubation of enzyme with compound and NADPH, diluted tenfold, then assayed) [%] | rate constant of irreversible combination (kcat) (5α-reductase [2]; second phase, enzyme-inhibitor complex rendered inactive) [s⁻¹]
CC(=O)[C@H]1CC[C@H]2[C@@H]3CCC4=CC(=O)CC[C@]4(C)[C@H]3CC[C@]12C [progesterone] | Inhibition of the conversion of testosterone to dihydrotestosterone | 3.91 Picomol Testosterone Reduced/m and 3.41 Picomol Testosterone Reduced/m | 3.91 Picomol Testosterone Reduced/m and 3.79 Picomol Testosterone Reduced/m | 3.66 Picomol Testosterone Reduced/m and 3.54 Picomol Testosterone Reduced/m | competitive and reversible | does not result in enzyme inactivation | inhibiting growth of the tissue | strongly inhibits the enzyme | reversible and competitive inhibitor | 45/53 |  |  |  |  |  |  |  |  |  | 
C=C1C[C@H]2[C@@H]3CC[C@H](C(C)=O)[C@@]3(C)CC[C@@H]2[C@@]2(C)CCC(=O)C=C12 [6-methyleneprogesterone] |  |  |  |  |  |  |  |  |  |  | equipotent with progesterone |  |  |  |  |  |  |  |  | 
C=C1C[C@@H]2[C@H](CC[C@@]3(C)[C@H]2CC[C@]3(OC(C)=O)C(C)=O)[C@@]2(C)CCC(=O)C=C12 [17α-acetoxy-6-methyleneprogesterone] |  |  |  |  | irreversible manner |  |  |  |  |  | equipotent with progesterone | 0.71 ± 0.018 Picomol Testosterone reduced/m | 3.0 ± 0.26 Picomol Testosterone reduced/m | 2.83 ± 0.09 Picomol Testosterone reduced/m | 2.63 ± 0.18 Picomol Testosterone reduced/m | 3.14 ± 0.20 Picomol Testosterone reduced/m | 1250 | pseudo first-order kinetics | 75 | 0.0048
